Test results published in US20210238225A1, “PEPTIDOMIMETIC INHIBITORS OF THE PEPTIDYL-PROLYL CIS/TRANS ISOMERASE (PIN1)” (DANA-FARBER CANCER INSTITUTE, INC., priority 2018, published 2021).
Like-named read-outs stand apart in the source and are kept apart here. Non-standard residues stand in square brackets, D forms with d. Residues, ends and D or L forms follow the SMILES beside them. *: point of attachment. alloThr(PO3H2) = C[C@H](OP(=O)(O)O)[C@H](N)C(=O)O; Phe(4-CONH2) = NC(=O)c1ccc(C[C@H](N)C(=O)O)cc1; Phe(4-tBu) = CC(C)(C)c1ccc(C[C@H](N)C(=O)O)cc1; Phe(4-F) = N[C@@H](Cc1ccc(F)cc1)C(=O)O; 2Nal = N[C@@H](Cc1ccc2ccccc2c1)C(=O)O; Bta = N[C@@H](Cc1csc2ccccc12)C(=O)O; NH(4-Me-benzyl) = Cc1ccc(CN*)cc1; NMeF = CN[C@@H](Cc1ccccc1)C(=O)O; 3Thi = N[C@@H](Cc1ccsc1)C(=O)O; Cha = N[C@@H](CC1CCCCC1)C(=O)O; Cit = NC(=O)NCCC[C@H](N)C(=O)O; X7 = c1ccc(-c2ccc(N*)cc2)cc1; Pip = O=C(O)[C@@H]1CCCCN1; Ac6c = NC1(C(=O)O)CCCCC1; Piperidide = C1CCN(*)CC1; Fluoroacetyl = O=C(CF)*; Acryloyl = C=CC(=O)*; ClAc = O=C(CCl)*

Molecular target: Pin1 (GST-Pin1) (Homo sapiens, UniProt Q13526)
Sequence (Q13526 whole entry): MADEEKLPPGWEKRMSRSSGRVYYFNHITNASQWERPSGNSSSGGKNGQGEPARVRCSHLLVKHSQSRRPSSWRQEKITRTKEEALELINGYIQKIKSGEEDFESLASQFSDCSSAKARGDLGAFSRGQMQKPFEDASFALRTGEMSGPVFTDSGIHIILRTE
Assay: Fluorescence polarization (FP) assay, binding to Pin1
Conditions: competition with fluorescein-labeled peptide probe, 12 hours pre-incubation at 4° C., Kenakin Ki equation

Q: With CC(C)(C)c1ccc(C[C@H](NC(=O)[C@@H]2CCCCN2C(=O)[C@H](CCC(=O)O)NC(=O)CCl)C(=O)N[C@@H](CCCNC(=N)N)C(N)=O)cc1 [Compound 2b-14, (S)-5-((S)-2-(((S)-1-(((S)-1-Amino-5-guanidino-1-oxopentan-2-yl)amino)-3-(4-(tert-butyl)phenyl)-1-oxopropan-2-yl)carbamoyl)piperidin-1-yl)-4-(2-chloroacetamido)-5-oxopentanoic acid] (ClAc-E[Pip][Phe(4-tBu)]R-NH2) as the compound, how does the Ki (read-out: Ki, μM (FP Assay)) read?
A: 0.19 µM

Q: For NC(=O)NCCC[C@H](NC(=O)[C@H](Cc1ccc2ccccc2c1)NC(=O)[C@H](CC1CCCCC1)NC(=O)[C@H](CCC(=O)O)NC(=O)CCl)C(N)=O [Compound 2-15, (6S,9S,12S,15S)-1-Amino-6-carbamoyl-15-(2-chloroacetamido)-12-(cyclohexylmethyl)-9-(naphthalen-2-ylmethyl)-1,8,11,14-tetraoxo-2,7,10,13-tetraazaoctadecan-18-oic acid] (ClAc-E[Cha][2Nal][Cit]-NH2), which Ki (Ki, μM (FP Assay)) is on record?
A: > 10 µM

Q: Which Ki (read-out: Ki, μM (FP Assay)) does the source give for C=CC(=O)N[C@H](CCC(=O)O)C(=O)N1CCCC[C@H]1C(=O)N[C@@H](Cc1ccc2ccccc2c1)C(=O)N[C@@H](CCC(N)=O)C(N)=O [Compound 2b-2, (R)-4-Acrylamido-5-((S)-2-(((S)-1-(((S)-1,5-diamino-1,5-dioxopentan-2-yl)amino)-3-(naphthalen-2-yl)-1-oxopropan-2-yl)carbamoyl)piperidin-1-yl)-5-oxopentanoic acid] (Acryloyl-[dE][Pip][2Nal]Q-NH2) here?
A: > 10 µM

Q: How did the Ki (Ki, μM (FP Assay)) turn out when NC(=O)NCCC[C@H](NC(=O)[C@H](Cc1ccc2ccccc2c1)NC(=O)C1(NC(=O)[C@H](CCC(=O)O)NC(=O)CCl)CCCCC1)C(N)=O [Compound 2-10, (S)-5-((1-(((S)-1-(((S)-1-Amino-1-oxo-5-ureidopentan-2-yl)amino)-3-(naphthalen-2-yl)-1-oxopropan-2-yl)carbamoyl)cyclohexyl)amino)-4-(2-chloroacetamido)-5-oxopentanoic acid] (ClAc-E[Ac6c][2Nal][Cit]-NH2) was run?
A: > 10 µM

Q: COC(=O)CC[C@H](NC(=O)CCl)C(=O)N1CCCC[C@H]1C(=O)N[C@@H](Cc1c[nH]c2ccccc12)C(=O)N[C@@H](Cc1ccsc1)C(=O)NCc1ccc(C)cc1 [Compound 11-29, Methyl (S)-5-((S)-2-(((S)-3-(1H-indol-3-yl)-1-(((S)-1-((4-methylbenzyl)amino)-1-oxo-3-(thiophen-3-yl)propan-2-yl)amino)-1-oxopropan-2-yl)carbamoyl)piperidin-1-yl)-4-(2-chloroacetamido)-5-oxopentanoate] (ClAc-E(OMe)[Pip]W[3Thi]-{NH(4-Me-benzyl)}) was tested. Which Ki (Ki, μM (FP Assay)) did it give?
A: 1.01 µM

Q: C[C@H](OP(=O)(O)O)[C@H](NC(=O)CCl)C(=O)N1CCCC[C@H]1C(=O)N[C@@H](Cc1ccc2ccccc2c1)C(=O)N[C@@H](CCCNC(=N)N)C(N)=O [Compound 2-5, (2S,3S)-4-((S)-2-(((S)-1-(((S)-1-Amino-5-guanidino-1-oxopentan-2-yl)amino)-3-(naphthalen-2-yl)-1-oxopropan-2-yl)carbamoyl)piperidin-1-yl)-3-(2-chloroacetamido)-4-oxobutan-2-yl dihydrogen phosphate] (ClAc-[alloThr(PO3H2)][Pip][2Nal]R-NH2) was tested. Which Ki (read-out: Ki, μM (FP Assay)) did it give?
A: 0.13 µM

Q: How did the Ki (read-out: Ki, μM (FP Assay)) turn out when NC(=O)c1ccc(C[C@H](NC(=O)[C@H](Cc2ccc3ccccc3c2)NC(=O)[C@@H]2CCCCN2C(=O)[C@H](CCC(=O)O)NC(=O)CCl)C(N)=O)cc1 [Compound 2-9, (S)-5-((S)-2-(((S)-1-(((S)-1-Amino-3-(4-carbamoylphenyl)-1-oxopropan-2-yl)amino)-3-(naphthalen-2-yl)-1-oxopropan-2-yl)carbamoyl)piperidin-1-yl)-4-(2-chloroacetamido)-5-oxopentanoic acid] (ClAc-E[Pip][2Nal][Phe(4-CONH2)]-NH2) was run?
A: 0.33 µM

Q: Which Ki (read-out: Ki, μM (FP Assay)) does the source give for CN(C(=O)CCl)[C@@H](Cc1ccccc1)C(=O)N1CCCC[C@H]1C(=O)N[C@@H](Cc1c[nH]c2ccccc12)C(=O)N[C@@H](Cc1ccc(F)cc1)C(=O)N1CCCCC1 [Compound 11-43, (S)-1-(N-(2-Chloroacetyl)-N-methyl-L-phenylalanyl)-N—((S)-1-(((S)-3-(4-fluorophenyl)-1-oxo-1-(piperidin-1-yl)propan-2-yl)amino)-3-(1H-indol-3-yl)-1-oxopropan-2-yl)piperidine-2-carboxamide] (ClAc-[NMeF][Pip]W[Phe(4-F)]-Piperidide) here?
A: 0.172 µM

Q: With Cc1ccc(CNC(=O)[C@H](CCCNC(N)=O)NC(=O)[C@H](Cc2c[nH]c3ccccc23)NC(=O)[C@@H]2CCCCN2C(=O)[C@H](Cc2ccccc2)NCC#N)cc1 [Compound 12, (S)—N—((S)-3-(1H-indol-3-yl)-1-(((S)-1-((4-methylbenzyl)amino)-1-oxo-5-ureidopentan-2-yl)amino)-1-oxopropan-2-yl)-1-((cyanomethyl)-L-phenylalanyl)piperidine-2-carboxamide] as the compound, how does the Ki (read-out: Ki, μM (FP Assay)) read?
A: > 10 µM

Q: With NC(=O)NCCC[C@H](NC(=O)[C@H](Cc1c[nH]c2ccccc12)NC(=O)[C@@H]1CCCCN1C(=O)[C@H](CCC(=O)O)NC(=O)CF)C(N)=O [Compound 6b, (S)-5-((S)-2-(((S)-1-(((S)-1-Amino-1-oxo-5-ureidopentan-2-yl)amino)-3-(1H-indol-3-yl)-1-oxopropan-2-yl)carbamoyl)piperidin-1-yl)-4-(2-fluoroacetamido)-5-oxopentanoic acid] (Fluoroacetyl-E[Pip]W[Cit]-NH2) as the compound, how does the Ki (Ki, μM (FP Assay)) read?
A: > 10 µM

Q: For Cc1ccc(CNC(=O)[C@H](CCCNC(N)=O)NC(=O)[C@H](Cc2csc3ccccc23)NC(=O)[C@@H]2CCCCN2C(=O)[C@H](Cc2ccccc2)NC(=O)CCl)cc1 [Compound 11-33, (S)—N—((S)-3-(benzo[6]thiophen-3-yl)-1-(((S)-1-((4-methylbenzyl)amino)-1-oxo-5-ureidopentan-2-yl)amino)-1-oxopropan-2-yl)-1-((2-chloroacetyl)-L-phenylalanyl)-piperidine-2-carboxamide] (ClAc-F[Pip][Bta][Cit]-{NH(4-Me-benzyl)}), which Ki (read-out: Ki, μM (FP Assay)) is on record?
A: 0.028 µM

Q: How did the Ki (read-out: Ki, μM (FP Assay)) turn out when NC(=O)NCCC[C@H](NC(=O)[C@H](Cc1ccc2ccccc2c1)NC(=O)[C@@H]1CCCCN1C(=O)C[C@H](CCC(=O)O)N1C(=O)C=CC1=O)C(N)=O [Compound 5-1, (S)-6-((S)-2-(((S)-1-(((S)-1-Amino-1-oxo-5-ureidopentan-2-yl)amino)-3-(naphthalen-2-yl)-1-oxopropan-2-yl)carbamoyl)piperidin-1-yl)-4-(2,5-dioxo-2,5-dihydro-1H-pyrrol-1-yl)-6-oxohexanoic acid] was run?
A: 0.61 µM

Q: How did the Ki (read-out: Ki, μM (FP Assay)) turn out when C[C@H](OP(=O)(O)O)[C@H](NC(=O)CCl)C(=O)N1CCCC[C@H]1C(=O)N[C@@H](Cc1ccc2ccccc2c1)C(=O)N[C@@H](CCC(N)=O)C(N)=O [Compound 2-4, (2S,3S)-3-(2-Chloroacetamido)-4-((S)-2-(((S)-1-(((S)-1,5-diamino-1,5-dioxopentan-2-yl)amino)-3-(naphthalen-2-yl)-1-oxopropan-2-yl)carbamoyl)piperidin-1-yl)-4-oxobutan-2-yl dihydrogen phosphate] (ClAc-[alloThr(PO3H2)][Pip][2Nal]Q-NH2) was run?
A: 1.24 µM

Q: How did the Ki (Ki, μM (FP Assay)) turn out when COC(=O)CC[C@H](NC(=O)CCl)C(=O)N1CCCC[C@H]1C(=O)N[C@@H](Cc1c[nH]c2ccccc12)C(=O)N[C@@H](CCCNC(N)=O)C(=O)Nc1ccc(-c2ccccc2)cc1 [Compound 11-17, Methyl (S)-5-((S)-2-(((S)-1-(((S)-1-([1,1′-biphenyl]-4-ylamino)-1-oxo-5-ureidopentan-2-yl)amino)-3-(1H-indol-3-yl)-1-oxopropan-2-yl)carbamoyl)piperidin-1-yl)-4-(2-chloroacetamido)-5-oxopentanoate] (ClAc-E(OMe)[Pip]W[Cit]-X7) was run?
A: > 10 µM
